According to US8883782B2, “Spiro-tetracyclic ring compounds as beta-secretase modulators and methods of use” (Amgen Inc., priority 2010, dated 2014):

How the values were obtained:
[1] = biological target: Beta Secretase enzyme (BACE) (Homo sapiens, UniProt P56817); assay: In vitro enzymatic BACE FRET (fluorescence resonance energy transfer) assay; assay type: biochemical; conditions: average IC50, enzyme assay; read-out: BACE 1 FRET assay
Procedure, shortened: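 Acetate buffer (0.05 M, pH 4.2), 10% DMSO final, 100 uM nonionic detergent genapol. Substrate addition (50 nM FRET peptide) initiates; one-hour incubation; Tris raises pH to neutrality before fluorescence measurement.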

[2] = test system: Aβ40 in conditioned medium of cells stably expressing Amyloid Precursor Protein (APP); assay: In vitro BACE cell-based assay (Aβ40 in conditioned medium, sandwich ELISA); conditions: Homo sapiens, HEK293, average IC50; read-out: HEK cell assay
Procedure, shortened: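 The sandwich ELISA pairs pAb40 capture (3 h, 4 °C) with 6E10 detection (2 h, 4 °C) and a streptavidin-europium TRF read-out. Supernatants come from APP-expressing cells grown in 10% FBS DMEM.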

Beta Secretase enzyme (BACE), sequence (P56817 46-501, species assumed): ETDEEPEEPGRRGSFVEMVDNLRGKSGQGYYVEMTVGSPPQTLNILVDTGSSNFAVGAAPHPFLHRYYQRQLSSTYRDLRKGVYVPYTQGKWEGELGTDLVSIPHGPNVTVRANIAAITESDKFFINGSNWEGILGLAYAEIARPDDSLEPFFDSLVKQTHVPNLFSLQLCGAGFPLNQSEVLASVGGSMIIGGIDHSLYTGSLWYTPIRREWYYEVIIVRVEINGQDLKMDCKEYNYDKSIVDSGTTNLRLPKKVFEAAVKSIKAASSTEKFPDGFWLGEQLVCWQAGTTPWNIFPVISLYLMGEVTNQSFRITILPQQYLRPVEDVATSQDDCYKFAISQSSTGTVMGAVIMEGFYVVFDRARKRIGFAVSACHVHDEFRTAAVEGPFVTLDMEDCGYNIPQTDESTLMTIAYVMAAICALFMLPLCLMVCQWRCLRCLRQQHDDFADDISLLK

Row | Structure (SMILES) | IC50 [1] [nM] | IC50 [2] [nM]
1 | CC(C)(C#N)COc1cc(F)c2c(c1)[C@]1(COC(N)=N1)c1cc(-c3cncc(F)c3)ccc1O2 [Example 272, 3-(((4S)-2-amino-4′-fluoro-7′-(5-fluoro-3-pyridinyl)spiro[1,3-oxazole-4,9′-xanthen]-2′-yl)oxy)-2,2-dimethylpropanenitrile] | 0.5 | 5.9
2 | CC1(COc2cc(F)c3c(c2)[C@]2(COC(N)=N2)c2cc(-c4cncc(F)c4)ccc2O3)COC1 [Example 273, (4S)-4′-fluoro-7′-(5-fluoro-3-pyridinyl)-2′-((3-methyl-3-oxetanyl)methoxy)spiro[1,3-oxazole-4,9′-xanthen]-2-amine] | 0.7 | 3.1
3 | C[C@@H]1CN(c2cc(F)c3c(c2)[C@]2(COC(N)=N2)c2cc(-c4cncc(F)c4)ccc2O3)C[C@H](C)O1 [Example 274, (4S)-2′-((2R,6S)-2,6-dimethyl-4-morpholinyl)-4′-fluoro-7′-(5-fluoro-3-pyridinyl)spiro[1,3-oxazole-4,9′-xanthen]-2-amine] | 2.9 | 10.4
4 | COc1ccc(-c2cc(F)c3c(c2)[C@]2(COC(N)=N2)c2cc(-c4cccnc4F)ccc2O3)nn1 [Example 275, (4S)-4′-fluoro-7′-(2-fluoro-3-pyridinyl)-2′-(6-methoxy-3-pyridazinyl)spiro[1,3-oxazole-4,9′-xanthen]-2-amine] | 0.7 | 8
5 | NC1=N[C@@]2(CO1)c1cc(-c3cncc(F)c3)ccc1Oc1c(F)cc(N3C[C@@H]4C[C@H]3CO4)cc12 [Example 276, (4S)-4′-fluoro-7′-(5-fluoro-3-pyridinyl)-2′-((1S,4S)-2-oxa-5-azabicyclo[2.2.1]hept-5-yl)spiro[1,3-oxazole-4,9′-xanthen]-2-amine] | 0.8 | 3.3
6 | NC1=N[C@@]2(CO1)c1cc(-c3cncc(F)c3)ccc1Oc1c(F)cc(N3CCOCC3)cc12 [Example 277, (4S)-4′-fluoro-7′-(5-fluoro-3-pyridinyl)-2′-(4-morpholinyl)spiro[1,3-oxazole-4,9′-xanthen]-2-amine] | 1.5 | 6.4
7 | NC1=N[C@@]2(CO1)c1cc(-c3cncc(F)c3)ccc1Oc1c(F)cc(C3=CCCOC3)cc12 [Example 278, (4S)-2′-(5,6-dihydro-2H-pyran-3-yl)-4′-fluoro-7′-(5-fluoro-3-pyridinyl)spiro[1,3-oxazole-4,9′-xanthen]-2-amine] | 0.4 | 3.9
8 | COC1CN(c2cc(F)c3c(c2)[C@]2(COC(N)=N2)c2cc(-c4cccnc4F)ccc2O3)C1 [Example 281, (4S)-4′-fluoro-7′-(2-fluoro-3-pyridinyl)-2′-(3-methoxy-1-azetidinyl)spiro[1,3-oxazole-4,9′-xanthen]-2-amine] | 2 | 5.4
9 | CC1(C)CN(c2cc(F)c3c(c2)[C@]2(COC(N)=N2)c2cc(-c4cncc(F)c4)ccc2O3)CCO1 [Example 282, (4S)-2′-(2,2-dimethyl-4-morpholinyl)-4′-fluoro-7′-(5-fluoro-3-pyridinyl)spiro[1,3-oxazole-4,9′-xanthen]-2-amine] | 2 | 8.2
10 | NC1=N[C@@]2(CO1)c1cc(-c3cncc(F)c3)ccc1Oc1c(F)cc(N3CC4CCC(C3)O4)cc12 [Example 283, (4S)-4′-fluoro-7′-(5-fluoro-3-pyridinyl)-2′-(8-oxa-3-azabicyclo[3.2.1]oct-3-yl)spiro[1,3-oxazole-4,9′-xanthen]-2-amine] | 0.4 | 3.2
11 | NC1=N[C@@]2(CO1)c1cc(-c3cncc(F)c3)ccc1Oc1c(F)cc([C@@H]3CCCOC3)cc12 [Example 284, (4S)-4′-fluoro-7′-(5-fluoro-3-pyridinyl)-2′-((3S)-tetrahydro-2H-pyran-3-yl)spiro[1,3-oxazole-4,9′-xanthen]-2-amine] | 2.2 | 13.5
12 | NC1=N[C@@]2(CO1)c1cc(-c3cncc(F)c3)ccc1Oc1c(F)cc([C@H]3CCCOC3)cc12 [Example 285, (4S)-4′-fluoro-7′-(5-fluoro-3-pyridinyl)-2′-((3R)-tetrahydro-2H-pyran-3-yl)spiro[1,3-oxazole-4,9′-xanthen]-2-amine] | 2.4 | 20.4

Continued, values first:

Row | IC50 [1] [nM] | IC50 [2] [nM] | Structure (SMILES)
13 | 1.9 | 15.8 | NC1=N[C@@]2(CO1)c1cc(-c3cccnc3F)ccc1Oc1c(F)cc([C@@H]3CCCOC3)cc12 [Example 286, (4S)-4′-fluoro-7′-(2-fluoro-3-pyridinyl)-2′-((3S)-tetrahydro-2H-pyran-3-yl)spiro[1,3-oxazole-4,9′-xanthen]-2-amine]
14 | 1.7 | 21.7 | NC1=N[C@@]2(CO1)c1cc(-c3cccnc3F)ccc1Oc1c(F)cc([C@H]3CCCOC3)cc12 [Example 287, (4S)-4′-fluoro-7′-(2-fluoro-3-pyridinyl)-2′-((3R)-tetrahydro-2H-pyran-3-yl)spiro[1,3-oxazole-4,9′-xanthen]-2-amine]
15 | 0.3 | 4.1 | NC1=N[C@@]2(CO1)c1cc(-c3cncc(F)c3)ccc1Oc1c(F)cc(C3=CCOC3)cc12 [Example 288, (4S)-2′-(2,5-dihydro-3-furanyl)-4′-fluoro-7′-(5-fluoro-3-pyridinyl)spiro[1,3-oxazole-4,9′-xanthen]-2-amine]
16 | 2.5 | 14.6 | NC1=N[C@@]2(CO1)c1cc(-c3ccc(F)nc3)ccc1Oc1c(F)cc(-c3ncccn3)cc12 [Example 289, (4S)-4′-fluoro-7′-(6-fluoro-3-pyridinyl)-2′-(2-pyrimidinyl)spiro[1,3-oxazole-4,9′-xanthen]-2-amine]
17 | 0.8 | 8.1 | COc1ccc(-c2cc(F)c3c(c2)[C@]2(COC(N)=N2)c2cc(-c4cncc(F)c4)ccc2O3)nn1 [Example 290, (4S)-4′-fluoro-7′-(5-fluoro-3-pyridinyl)-2′-(6-methoxy-3-pyridazinyl)spiro[1,3-oxazole-4,9′-xanthen]-2-amine]
18 | 0.6 | 8 | NC1=N[C@@]2(CO1)c1cc(-c3cccnc3F)ccc1Oc1c(F)cc(C3=CCOC3)cc12 [Example 291, (4S)-2′-(2,5-dihydro-3-furanyl)-4′-fluoro-7′-(2-fluoro-3-pyridinyl)spiro[1,3-oxazole-4,9′-xanthen]-2-amine]
19 | 2 | 31.6 | Cc1ccc(-c2cc(F)c3c(c2)[C@]2(COC(N)=N2)c2cc(-c4cncc(F)c4)ccc2O3)nn1 [Example 292, (4S)-4′-fluoro-7′-(5-fluoro-3-pyridinyl)-2′-(6-methyl-3-pyridazinyl)spiro[1,3-oxazole-4,9′-xanthen]-2-amine]
20 | 7.5 | 82.5 | COc1ncc(-c2cc(F)c3c(c2)[C@]2(COC(N)=N2)c2cc(-c4cncc(F)c4)ccc2O3)cn1 [Example 293, (4S)-4′-fluoro-7′-(5-fluoro-3-pyridinyl)-2′-(2-methoxy-5-pyrimidinyl)spiro[1,3-oxazole-4,9′-xanthen]-2-amine]
21 | 61.1 | 612 | CC1(COc2cc(F)c3c(c2)[C@]2(COC(N)=N2)c2cc(-c4cccnc4)c(F)cc2O3)COC1 [Example 294, (4S)-3′,5′-difluoro-7′-((3-methyl-3-oxetanyl)methoxy)-2′-(3-pyridinyl)spiro[1,3-oxazole-4,9′-xanthen]-2-amine]
22 | 4.8 | 15.9 | NC1=N[C@@]2(CO1)c1cc(-c3ccc(F)nc3)ccc1Oc1c(F)cc(C3CCOCC3)cc12 [Example 301, (4S)-4′-fluoro-7′-(6-fluoro-3-pyridinyl)-2′-(tetrahydro-2H-pyran-4-yl)spiro[1,3-oxazole-4,9′-xanthen]-2-amine]
23 | 3.1 | 5.6 | NC1=N[C@@]2(CO1)c1cc(-c3ccc(F)nc3)ccc1Oc1c(F)cc(N3C[C@@H]4C[C@H]3CO4)cc12 [Example 302, (4S)-4′-fluoro-7′-(6-fluoro-3-pyridinyl)-2′-((1S,4S)-2-oxa-5-azabicyclo[2.2.1]hept-5-yl)spiro[1,3-oxazole-4,9′-xanthen]-2-amine]
24 | 2 | 6.7 | C[C@@H]1CN(c2cc(F)c3c(c2)[C@]2(COC(N)=N2)c2cc(-c4cccnc4F)ccc2O3)C[C@H](C)O1 [Example 303, (4S)-2′-((2R,6S)-2,6-dimethyl-4-morpholinyl)-4′-fluoro-7′-(2-fluoro-3-pyridinyl)spiro[1,3-oxazole-4,9′-xanthen]-2-amine]
25 | 2.1 | 23.9 | CC(C)(C)/C=C/c1cc2c(cn1)Oc1cc(F)c(-c3cncnc3)cc1[C@@]21COC(N)=N1 [Example 304, (5S)-3-((1E)-3,3-dimethyl-1-buten-1-yl)-8-fluoro-7-(5-pyrimidinyl)spiro[chromeno[2,3-c]pyridine-5,4′-[1,3]oxazol]-2′-amine]
26 | 9.9 | 95.8 | CC(C)(C)C#Cc1cc2c(cn1)Oc1cc(F)c(-c3cncnc3)cc1[C@@]21COC(N)=N1 [Example 305, (5S)-3-(3,3-dimethyl-1-butyn-1-yl)-8-fluoro-7-(5-pyrimidinyl)spiro[chromeno[2,3-c]pyridine-5,4′-[1,3]oxazol]-2′-amine]
27 | 1.5 | 56.7 | NC1=N[C@@]2(CO1)c1cc(-c3cccnc3F)ncc1Oc1c(F)cc(C3=CCOCC3)cc12 [Example 306, (5S)-7-(3,6-dihydro-2H-pyran-4-yl)-9-fluoro-3-(2-fluoro-3-pyridinyl)spiro[chromeno[2,3-c]pyridine-5,4′-[1,3]oxazol]-2′-amine]
28 | 3.9 | 58.1 | NC1=N[C@@]2(CO1)c1cc(-c3cccnc3)ncc1Oc1c(F)cc(C3=CCOCC3)cc12 [Example 307, (5S)-7-(3,6-dihydro-2H-pyran-4-yl)-9-fluoro-3-(3-pyridinyl)spiro[chromeno[2,3-c]pyridine-5,4′-[1,3]oxazol]-2′-amine]
